{"source": "BindingDB's records for patent US10744117", "about": "(The Scripps Research Institute; The University of Toledo, 2020)", "molecular_target": "T1, Peroxisome proliferator-activated receptor gamma (Homo sapiens, UniProt P37231)", "T1 sequence (P37231 whole entry)": "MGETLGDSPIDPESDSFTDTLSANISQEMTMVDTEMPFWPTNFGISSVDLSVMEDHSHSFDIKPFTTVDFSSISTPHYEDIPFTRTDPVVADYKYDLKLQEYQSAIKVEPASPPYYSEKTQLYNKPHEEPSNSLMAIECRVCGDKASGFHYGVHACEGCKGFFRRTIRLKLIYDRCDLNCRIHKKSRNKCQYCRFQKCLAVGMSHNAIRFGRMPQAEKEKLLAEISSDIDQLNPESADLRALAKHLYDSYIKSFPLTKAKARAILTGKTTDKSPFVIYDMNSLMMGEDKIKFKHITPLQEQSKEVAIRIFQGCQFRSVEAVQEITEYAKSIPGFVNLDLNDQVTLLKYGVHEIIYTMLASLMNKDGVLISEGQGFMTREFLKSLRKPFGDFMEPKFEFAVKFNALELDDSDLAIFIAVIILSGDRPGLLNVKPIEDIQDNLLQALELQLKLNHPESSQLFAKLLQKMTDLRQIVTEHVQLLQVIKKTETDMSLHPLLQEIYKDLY"}
{"smiles": "Cc1c(C)n(Cc2ccc(-c3ccc(Cl)c(O[C@H](C)C(=O)O)c3)cc2)c2ccc(C(=O)N[C@@H](C)c3ccc(C(C)(C)C)cc3)cc12", "note": "[US10744117, Compound IA-58]", "values": [{"measurement": "IC50", "result": 15, "unit": "µM"}]}
